Results: US6627641B1, “Antimalarial naphthylisoquinoline alkaloids and pharmaceutical compositions and medical uses thereof” (The United States of America as represented by the …, priority 1994, dated 2003)
≈ marks a conversion by molar mass, not a printed value.

Tests used:
[1] = tested on: Plasmodium berghei (Anka strain); assay: In vivo antimalarial test in OF1 mice inoculated with P. berghei; conditions: for Parasitemia (%) at day 4 / Parasitemia (%) at day 10: average (95% CI)
Description: Outbred, female, six-week-old OF1 mice (six mice per group treated and nontreated [control]) were inoculated intraperitoneally on day 0 with 10^6 P. berghei (Anka strain) blood forms. Two hours later, they were administered orally 50 mg/kg of dioncopeltine A or dioncophylline B. A second, third, and fourth treatment (50 mg/kg each) was given after 24, 48 and 72 h, respectively (days 1, 2, and 3). […] The parasitemia (%) in the control (not drug-treated) group was 3.50 (range 3.02-3.97; N=6). In the dioncopeltine A treated group, the parasitemia was 0.03 (range 0.01-0.06; N=6); in the dioncophylline B treated group, the parasitemia was […] (range 0.66-3.07; N=6).
The in vivo antimalarial testing was performed as described above, except that more doses and different treatment schedules were employed, as described in Tables 3 and 4.

[2] = tested on: P. falciparum (NF54 strain, clone A149); assay: In vitro 3H-hypoxanthine incorporation test with P. falciparum NF 54; type: cell-based, Plasmodium falciparum; conditions: NF 54, clone A149; six repeats; max. concentration 50 or 5 μg/ml
Description: Continuous in vitro cultures of asexual erythrocytic stages of P. falciparum (strain NF 54/64, clone A1A9) were maintained following essentially the method of Trager and Jensen (Science, 193, 673-675, 1976) at 37° C. under an atmosphere of 5% CO2, 5% O2, and 90% N2. The host cells were human erythrocytes (A or O Rh+). The culture medium was RPMI 1640 (Gibco), containing HEPES (BDH; 4.57 gL^−1), glucose (Sigma; 1.54 gL^−1), 5% NaHCO3 (Merck; 34.78 mlL^−1), and gentamycin (Merck; 8.70 mlL^−1) supplemented with 10% human plasma (A Rh+). Parasites were subinoculated every 3-4 days with initial conditions of 1% parasitemia and 1% hematocrit.
(§1) In vitro testing with P. falciparum was as follows. Each compound was dissolved in DMSO at a concentration of 20 mg ml^−1. These solutions were further diluted with physiological saline to obtain a stock solution of 500 μg ml^−1. Each test substance was applied in a series of seven, 4-fold dilutions (maximum concentrations 50 or 5 μg ml^−1). Each compound was tested in 6-fold repeats. Chloroquine was tested similarly, as a positive control.
(§2) The test protocol was performed in vitro, based upon the method of Desjardins, et al. (Antimicrobial Agents Chemother., 16, 710-715, 1979). The parasites (200 μl of a suspension with initial parasitemia of 0.5% and hematocrit of 1.5%) were incubated for 24 h in microtitre plates (Falcon MicroTest III) in hypoxanthine-free medium in the presence of 25 μl of test solution. The plates contained a negative control (6 wells with non-parasitized RBC's, no drug) and a positive control (6 wells with parasitized RBC's no drug). Thereafter, 25 μl of ^3H-hypoxanthine solution (Amersham) was added (0.5 μCi well ^−1), and the parasites were incubated for a further period of 18 h. Each well was harvested with a Cell Harvester (Nunc). The filter papers were dried for 2 h at 52° C., and their radioactivity was measured by liquid scintillation counting in Optiscint HiSafe (LKB Pharmacia).
(§3) The mean results, obtained as counts per min (cpm), were expressed as percentages of incorporation or growth inhibition. The sigmoid dose-response curve was then linearized by probit analysis with the aid of software provided by IWONL (Gent), adapted by G. Timperman and used to derive the IC50 values.

P. berghei (Anka) = assay: In vitro 3H-hypoxanthine incorporation test with P. berghei (Anka); type: cell-based, Plasmodium berghei; conditions: Anka strain
Description: as §1, §2, §3
For experiments with P. berghei (Anka strain), the parasites were maintained, and the in vitro tests performed essentially the same as above, except for the following modification. In the case of tests using P. berghei, the parasites were incubated in the same conditions as for P. falciparum (above) except that the incubations were started immediately in the presence of the ^3H-hypoxanthine and for 24 hour total duration (i.e., no delay in the addition of the ^3H-hypoxanthine). As before, the incorporated radioactivity was used as a-measure for parasite growth.

[3] = tested on: P. falciparum (K1 strain); assay: In vitro 3H-hypoxanthine incorporation test with chloroquine-resistant P. falciparum K1; type: cell-based, Plasmodium falciparum
Description: Selected compounds were also tested against drug-resistant parasites. The method was the same as above except for the following modifications. The parasite used was the chloroquine-resistant strain, K1, maintained essentially according to Desjardins, et al. (supra, 1979). The culture medium was RPMI-1640 containing TES (Sigma; 7.64 gL^−1), glucose (BDH; 1.67 gL^−1), NaHCO3 (BDH; 1.94 gL^−1), and gentamycin (Nicholas; 30 mgL^−1) supplemented with 10% human serum (A RH+). Parasites were subinoculated every 3-4 days with initial conditions of 1% parasitemia and 2.5% hematocrit. For the testing, small aliquots of test material were dissolved in 20 μl EtOH and RPMI 1640 to give solutions of 1 or 10 mg ml^−1. Each was applied in a series of twelve, […] dilutions (final […] ranging from 50 to 1.19×10^−3 μg ml^−1). Chloroquine diphosphate (Sigma) was used in the same experiments as a reference and also in twelve, 4-fold dilutions (final concentrations 2×10^−5-1.19×10^−12M). Each compound was tested in duplicate.
Testing was performed in vitro based upon the method of Desjardins, et al (supra, 1979), as modified by O'Neill, et al. (Planta Med., 51, 394-399, 1985) and Ekong, et al. (Biochem. Pharmacol., 40, 297-301, 1990). The parasites (50 μl initial parasitemia of 1%, hematocrit of 5%) were incubated for 24 h in microtitre plates (Nunc) in normal (not hypoxanthine-depleted) medium in the presence of 50 μl of test solution. Controls were set up in each test by preparing 12-24 wells with non-parasitized RBC's and no test solution and 12-24 wells with parasitized RBC's and no test compound. Thereafter, 5 μl all of ^3H-hypoxanthine (Amersham) were added (0.2 μCi well ^−1), and the parasites incubated for a further period of 18 h. Each well was harvested with a Cell Harvester (Skatron). Glass fibre filters were dried briefly. Radioactivity was measured by liquid scintillation counting in Ecoscint (National Diagnostics).
The results obtained as cpm were expressed as percentages of incorporation of growth inhibition. The dose-related part of the sigmoidal curves obtained were linearized by regression analysis with the aid of software developed by S. Grant (I.SHTM) and used to calculate the IC50 values.

[4] = 50 mg/kg/d oral, 1 day of treatment
[5] = 50 mg/kg/d oral, 2 days of treatment
[6] = 50 mg/kg/d oral, 3 days of treatment
[7] = 50 mg/kg/d oral, 4 days of treatment
[8] = oral treatment with 4×50 mg/kg/d

COc1cc(C)c(-c2ccc(O)c3c2C[C@@H](C)N[C@@H]3C)c2cccc(O)c12 [Dioncophylline C]
Parasitemia (%) at day 4 ([1]; 3.125 mg/kg/d oral, days 0-3): 5.36 (3.96 − 6.75) % | Parasitemia (%) at day 4 ([1]; 6.25 mg/kg/d oral, days 0-3): 4.42 (2.77 − 6.06) % | Parasitemia (%) at day 4 ([1]; 12.5 mg/kg/d oral, days 0-3): 3.36 (2.35 − 4.37) % | Parasitemia (%) at day 10 ([1]; 12.5 mg/kg/d oral, days 0-3): 26.91 (0.00 − 60.36) % | Parasitemia (%) at day 4 ([1]; 25 mg/kg/d oral, days 0-3): 0.62 (0.00 − 1.34) % | Parasitemia (%) at day 10 ([1]; 25 mg/kg/d oral, days 0-3): 29.82 (11.20 − 48.43) % | Parasitemia (%) at day 4 [1, 4]: 0.02 (0.00 − 0.05) % | Parasitemia (%) at day 10 [1, 4]: 7.87 (0.00 − 23.92) % | Parasitemia (%) at day 4 [1, 5]: 0.01 (0.00 − 0.02) % | Parasitemia (%) at day 10 [1, 5]: 0.41 (0.00 − 1.38) % | Number of OF1 negative (neg) at day 10 ([1]; 50 mg/kg/d oral, 2 days of treatment, n = 5): (2 0F1 neg) | Parasitemia (%) at day 4 [1, 6]: 0.00 (0.00 − 0.00) % | Parasitemia (%) at day 10 [1, 6]: 0.003 (0.000 − 0.012) % | Number of OF1 negative (neg) at day 10 ([1]; 50 mg/kg/d oral, 3 days of treatment, n = 6): (5 0F1 neg) | Parasitemia (%) at day 4 [1, 7]: 0.00 (0.00 − 0.00) % | Parasitemia (%) at day 10 [1, 7]: 0.00 (0.00 − 0.00) % | Number of OF1 negative (neg) at day 10 ([1]; 50 mg/kg/d oral, 4 days of treatment, n = 6): (6 0F1 neg) | Parasitemia (%) at day 4 ([1]; 50 mg/kg/d oral, days 0-3): 0.00 (0.00 − 0.00) % | Parasitemia (%) at day 10 ([1]; 50 mg/kg/d oral, days 0-3): 0.00 (0.00 − 0.00) % | Parasitemia (%) at day 4 ([1]; 100 mg/kg/d oral, days 0-3): 0.00 (0.00 − 0.00) % | Parasitemia (%) at day 10 ([1]; 100 mg/kg/d oral, days 0-3): 0.00 (0.00 − 0.00) % | Development of erythrocytic forms of P. berghei [1, 8]: completely and permanently inhibited | Indications of toxicity [1, 8]: no observed indications of any toxicity | IC50 P. falciparum NF54 strain [2]: 0.005 µg/mL (≈ 0.0138 µM) | IC50 P. berghei, Anka (P. berghei (Anka)): 0.015 µg/mL (≈ 0.0413 µM)

COc1cc(O)c(-c2c(C)cc(OC)c3c(OC)cccc23)c2c1[C@H](C)N[C@@H](C)C2 [Hamatine]
IC50 P. falciparum NF54 strain [2]: 3.338 µg/mL (≈ 8.19 µM) | IC50 P. berghei, Anka (P. berghei (Anka)): 5.565 µg/mL (≈ 13.7 µM)

COc1cc(C)cc2c(-c3c(O)cc(O)c4c3C[C@@H](C)N[C@@H]4C)cc(-c3cc(-c4c(O)cc(O)c5c4C[C@@H](C)N[C@@H]5C)c4cc(C)cc(OC)c4c3O)c(O)c12 [Michellamine A]
IC50 P. falciparum NF54 strain [2]: 46.957 µg/mL (≈ 62 µM) | IC50 P. berghei, Anka (P. berghei (Anka)): >50 µg/mL

COc1cccc2c(-c3ccc4c(c3O)C(C)N(C)C(C)C4)c(C)cc(OC)c12 (centres unmarked) [N-methyl-dioncophylline A]
IC50 P. falciparum NF54 strain [2]: 13.637 µg/mL (≈ 34.8 µM) | IC50 P. berghei, Anka (P. berghei (Anka)): 9.207 µg/mL (≈ 23.5 µM) | IC50 P. falciparum, K1 strain [3]: 5.749 µg/mL (≈ 14.7 µM)

Ancistrobrevine D
IC50 P. falciparum NF54 strain [2]: 12.222 µg/mL | IC50 P. berghei, Anka (P. berghei (Anka)): 6.069 µg/mL | IC50 P. falciparum, K1 strain [3]: 10.440 µg/mL

Dioncolactone A
IC50 P. falciparum NF54 strain [2]: 1.337 µg/mL | IC50 P. berghei, Anka (P. berghei (Anka)): 0.598 µg/mL

Dioncophylleine A
IC50 P. falciparum NF54 strain [2]: 21.295 µg/mL

Michellamine B
IC50 P. falciparum NF54 strain [2]: 20.185 µg/mL | IC50 P. berghei, Anka (P. berghei (Anka)): >50 µg/mL

N-formyl-O,O-dimethyl-dioncophylline C
IC50 P. falciparum NF54 strain [2]: >50 µg/mL

N-formyl-ancistrocladine
IC50 P. falciparum NF54 strain [2]: 8.129 µg/mL

N-formyl-dioncophylline C
IC50 P. falciparum NF54 strain [2]: 3.132 µg/mL

N-methyl-ancistrocladine
IC50 P. falciparum NF54 strain [2]: 0.491 µg/mL
